Where two headings read alike, the source gives them in different places.
How the values were obtained:
[1] = rat liver microsomal incubations, intrinsic clearance; type: in vitro ADME; settings: Sprague-Dawley, microsomes, pH 7.4
hURAT1 (SLC22A12) = target: T1, hURAT1 (SLC22A12) (Homo sapiens, UniProt Q96S37); assay: inhibition of 14C-urate uptake in oocytes expressing hURAT1; type: cell-based; settings: for IC50: hURAT1 IC50 (nM) ± SD, inhibition of 14C-urate uptake in oocytes expressing hURAT1; for fold weaker hURAT1 inhibitor than (1): IC50 compared with (1) (26 nM)
T1 sequence (Q96S37 1-553): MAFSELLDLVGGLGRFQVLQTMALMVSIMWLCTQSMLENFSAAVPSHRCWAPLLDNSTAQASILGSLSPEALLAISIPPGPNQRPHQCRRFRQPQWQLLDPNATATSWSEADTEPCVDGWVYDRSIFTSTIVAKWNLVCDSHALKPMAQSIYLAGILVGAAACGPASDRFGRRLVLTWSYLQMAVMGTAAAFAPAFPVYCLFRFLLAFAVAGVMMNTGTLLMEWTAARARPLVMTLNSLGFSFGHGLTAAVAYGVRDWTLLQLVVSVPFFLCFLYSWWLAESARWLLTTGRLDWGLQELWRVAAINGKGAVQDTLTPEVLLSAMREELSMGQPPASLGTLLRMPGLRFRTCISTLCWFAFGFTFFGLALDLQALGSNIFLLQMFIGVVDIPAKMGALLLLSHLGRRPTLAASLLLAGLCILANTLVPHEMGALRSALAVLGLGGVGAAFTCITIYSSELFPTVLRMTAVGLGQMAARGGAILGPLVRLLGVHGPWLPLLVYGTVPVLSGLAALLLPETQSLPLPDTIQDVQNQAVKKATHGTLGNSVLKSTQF

[2] = rat pharmacokinetics, intravenous; type: in vivo, male Sprague-Dawley rats; settings: for AUC: male, Sprague-Dawley, rat, whole blood, iv, 0.5 mg/kg
[3] = cited from earlier work

## CCc1cc2c(C(=O)c3cc(Br)c(O)c(Br)c3)c(O)ccc2o1 [(25), (3,5-dibromo-4-hydroxyphenyl)(2-ethyl-5-hydroxybenzofuran-4-yl)methanone]
[1]
  microsomal CLint at 1 µM: 94.8 ± 5.1 µL/min/mg

## CCCCc1oc2ccccc2c1C(=O)c1cc(Br)c(O)c(Br)c1 [(18), (2-butylbenzofuran-3-yl)(3,5-dibromo-4-hydroxyphenyl)methanone]
hURAT1 (SLC22A12)
  IC50: 1930 ± 90 nM

## CCc1oc2cc(O)ccc2c1C(=O)c1cc(Br)c(O)c(Br)c1 [(5), (3,5-dibromo-4-hydroxyphenyl)(2-ethyl-6-hydroxybenzofuran-3-yl)methanone]
[2]
  AUC: 6160 ± 680 ng·h/mL
[1]
  microsomal CLint at 1 µM: 19.7 ± 2.8 µL/min/mg

## CCc1oc2cc(OC)ccc2c1C(=O)c1cc(Br)c(O)c(Br)c1 [(3), (3,5-dibromo-4-hydroxyphenyl)(2-ethyl-6-methoxybenzofuran-3-yl)methanone]
[2]
  AUC: 9600 ± 280 ng·h/mL
[1]
  microsomal CLint at 1 µM: 207 ± 4.2 µL/min/mg

## CCc1cc2cc(O)cc(C(=O)c3cc(Br)c(O)c(Br)c3)c2o1 [(22), (3,5-dibromo-4-hydroxyphenyl)(2-ethyl-5-hydroxybenzofuran-7-yl)methanone]
[1]
  microsomal CLint at 1 µM: 454 ± 18.2 µL/min/mg

## CCc1oc2ccccc2c1C(=O)c1ccc(O)c(I)c1 [(13), (2-ethylbenzofuran-3-yl)(4-hydroxy-3-iodophenyl)methanone]
hURAT1 (SLC22A12)
  IC50: 1490 ± 80 nM

## CCc1oc2ccccc2c1C(=O)c1ccc(O)c(F)c1 [(10), (2-ethylbenzofuran-3-yl)(3-fluoro-4-hydroxyphenyl)methanone]
hURAT1 (SLC22A12)
  IC50: 2410 ± 90 nM

## CC(C)(C)c1cccc(C(C)(C)C)c1O [2,6-di-tert-butyl-phenol]
[3]; phenol pKa values ref 11
  pKa: 10.2

## CCc1oc2ccc(OC)cc2c1C(=O)c1cc(Br)c(O)c(Br)c1 [(6), (3,5-dibromo-4-hydroxyphenyl)(2-ethyl-5-methoxybenzofuran-3-yl)methanone]
[2]
  AUC: 2630 ± 250 ng·h/mL
[1]
  microsomal CLint at 1 µM: 44.9 ± 6.6 µL/min/mg

## CCc1oc2ccccc2c1C(=O)c1cc(Cl)c(O)c(Cl)c1 [(19), (3,5-dichloro-4-hydroxyphenyl)(2-ethylbenzofuran-3-yl)methanone]
hURAT1 (SLC22A12)
  fold weaker hURAT1 inhibitor than (1): ~ 15 fold
  IC50: 399 ± 56 nM

## CCc1cc2cc(OC)cc(C(=O)c3cc(Br)c(O)c(Br)c3)c2o1 [(21), (3,5-dibromo-4-hydroxyphenyl)(2-ethyl-5-methoxybenzofuran-7-yl)methanone]
[1]
  microsomal CLint at 1 µM: 210 ± 5.9 µL/min/mg

## CCc1cc2c(C(=O)c3cc(Br)c(O)c(Br)c3)c(OC)ccc2o1 [(24), (3,5-dibromo-4-hydroxyphenyl)(2-ethyl-5-methoxybenzofuran-4-yl)methanone]
[1]
  microsomal CLint at 1 µM: 323 ± 10.8 µL/min/mg

## CCc1oc2cc(OC)c(Br)cc2c1C(=O)c1cc(Br)c(O)c(Br)c1 [(4), (5-bromo-2-ethyl-6-methoxybenzofuran-3-yl)(3,5-dibromo-4-hydroxyphenyl)methanone]
[1]
  microsomal CLint at 1 µM: 23.5 ± 10.9 µL/min/mg

## CCc1oc2ccc(F)cc2c1C(=O)c1cc(Br)c(O)c(Br)c1 [(9), (3,5-dibromo-4-hydroxyphenyl)(2-ethyl-5-fluorobenzofuran-3-yl)methanone]
[2]
  AUC: 5260 ± 810 ng·h/mL
[1]
  microsomal CLint at 1 µM: 142 ± 5.5 µL/min/mg

## CCc1oc2ccccc2c1C(=O)c1cc(Br)c(OC)c(Br)c1 [(16), (3,5-dibromo-4-methoxyphenyl)(2-ethylbenzofuran-3-yl)methanone]
hURAT1 (SLC22A12)
  fold weaker hURAT1 inhibitor than (1): ~ 47 fold
  IC50: 1220 ± 110 nM

## CCc1oc2ccc(O)cc2c1C(=O)c1cc(Br)c(O)c(Br)c1 [(8), (3,5-dibromo-4-hydroxyphenyl)(2-ethyl-5-hydroxybenzofuran-3-yl)methanone]
[2]
  AUC: 940 ± 80 ng·h/mL
[1]
  microsomal CLint at 1 µM: 52 ± 0.1 µL/min/mg

## CCc1cc2c(C(=O)c3cc(Br)c(O)c(Br)c3)cc(Br)c(O)c2o1 [(26), (6-bromo-2-ethyl-7-hydroxybenzofuran-4-yl)(3,5-dibromo-4-hydroxyphenyl)methanone]
[1]
  microsomal CLint at 1 µM: 34.3 ± 1.2 µL/min/mg

## CCc1oc2ccccc2c1C(=O)c1ccc(O)c(Br)c1 [(12), (3-bromo-4-hydroxyphenyl)(2-ethylbenzofuran-3-yl)methanone]
hURAT1 (SLC22A12)
  IC50: 814 ± 160 nM

## CCc1oc2ccc(OC)cc2c1C(=O)c1ccc(O)cc1 [(2), (2-ethyl-5-methoxybenzofuran-3-yl)(4-hydroxyphenyl)methanone]
[1]
  microsomal CLint at 1 µM: 412 ± 6.4 µL/min/mg

## CCc1cc2cc(OC)cc(C(=O)c3ccc(OC)cc3)c2o1 [(20), (2-ethyl-5-methoxybenzofuran-7-yl)(4-methoxyphenyl)methanone]
[1]
  microsomal CLint at 1 µM: 704 ± 12.7 µL/min/mg

## CCc1oc2ccccc2c1C(=O)c1cc(Br)c(O)c(Br)c1 [(1), (3,5-dibromo-4-hydroxyphenyl)(2-ethylbenzofuran-3-yl)methanone, reference compound]
[2]
  AUC: 9070 ± 590 ng·h/mL
[2]; parent compound, orbital sinus 0.5 mg/kg, blood, n = 3 ± SD
  T1/2: 1.1 ± 0.1 h
[1]
  microsomal CLint at 1 µM: 51.3 ± 6.7 µL/min/mg

## CCc1oc2ccccc2c1C(=O)c1ccc(O)c(Cl)c1 [(11), (3-chloro-4-hydroxyphenyl)(2-ethylbenzofuran-3-yl)methanone]
hURAT1 (SLC22A12)
  IC50: 874 ± 56 nM

## CCc1oc2ccccc2c1C(=O)c1cc(C)c(O)c(C)c1 [(15), (2-ethylbenzofuran-3-yl)(4-hydroxy-3,5-dimethylphenyl)methanone]
hURAT1 (SLC22A12)
  IC50: 7540 ± 60 nM

## CCc1oc2cc(Br)c(O)c(Br)c2c1C(=O)c1ccc(OC)cc1 [(7), (4,6-dibromo-2-ethyl-5-hydroxybenzofuran-3-yl)(4-methoxyphenyl)methanone]
[1]
  microsomal CLint at 1 µM: 286.8 ± 0.9 µL/min/mg

## O=c1[nH]c(=O)c2[nH]c(=O)[nH]c2[nH]1 [uric acid]
[3]; in urine
  pKa: 5.4

## CCCCc1oc2ccccc2c1C(=O)c1ccc(O)cc1 [(17), (2-butylbenzofuran-3-yl)(4-hydroxyphenyl)methanone]
hURAT1 (SLC22A12); butyl versus ethyl analog, ethyl analog ref 10
  hURAT1 inhibition compared with corresponding ethyl analog: much weaker inhibitor than the corresponding ethyl analog

## CCc1cc2c(C(=O)c3ccc(OC)cc3)cc(Br)c(O)c2o1 [(23), (6-bromo-2-ethyl-7-hydroxybenzofuran-4-yl)(4-methoxyphenyl)methanone]
[1]
  microsomal CLint at 1 µM: 121 ± 12.2 µL/min/mg

— publication PMC3496402 (Drug Design, Development and Therapy, 2012)
